From PubChem BioAssay (NCI)
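How tested: cells in 96-well plates exposed to compound for 48 hours at five concentrations. TGI marks complete inhibition of growth.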

Legend:
Test in all cases: DTP human tumour cell line panel, 48 h
A498 renal = tested on: A498 renal
ACHN renal = tested on: ACHN renal
CAKI-1 renal = tested on: CAKI-1 renal
CCRF-CEM leukemia = tested on: CCRF-CEM leukemia
DU-145 prostate = tested on: DU-145 prostate
EKVX NSCLC = tested on: EKVX NSCLC
HL-60(TB) leukemia = tested on: HL-60(TB) leukemia
HT29 colon = tested on: HT29 colon
K-562 leukemia = tested on: K-562 leukemia
KM12 colon = tested on: KM12 colon
MALME-3M melanoma = tested on: MALME-3M melanoma
MCF7 breast = tested on: MCF7 breast
MDA-MB-231 breast = tested on: MDA-MB-231 breast
MDA-MB-435 = tested on: MDA-MB-435
MDA-N = tested on: MDA-N
MOLT-4 leukemia = tested on: MOLT-4 leukemia
NCI-H522 lung = tested on: NCI-H522 lung
OVCAR-3 ovarian = tested on: OVCAR-3 ovarian
OVCAR-4 ovarian = tested on: OVCAR-4 ovarian
OVCAR-5 ovarian = tested on: OVCAR-5 ovarian
PC-3 prostate = tested on: PC-3 prostate
RPMI-8226 leukemia = tested on: RPMI-8226 leukemia
RXF 393 renal = tested on: RXF 393 renal
SK-MEL-2 melanoma = tested on: SK-MEL-2 melanoma
SK-MEL-28 melanoma = tested on: SK-MEL-28 melanoma
SK-MEL-5 melanoma = tested on: SK-MEL-5 melanoma
SR leukemia = tested on: SR leukemia
SW-620 colon = tested on: SW-620 colon
U251 CNS = tested on: U251 CNS
UACC-257 melanoma = tested on: UACC-257 melanoma
786-0 renal = tested on: 786-0 renal
A549 NSCLC = tested on: A549 NSCLC
BT-549 breast = tested on: BT-549 breast
COLO 205 colon = tested on: COLO 205 colon
HCC-2998 colon = tested on: HCC-2998 colon
HCT-116 colon = tested on: HCT-116 colon
HCT-15 colon = tested on: HCT-15 colon
HOP-62 NSCLC = tested on: HOP-62 NSCLC
IGROV1 ovarian = tested on: IGROV1 ovarian
LOX IMVI melanoma = tested on: LOX IMVI melanoma
NCI-H226 lung = tested on: NCI-H226 lung
NCI-H23 lung = tested on: NCI-H23 lung
NCI-H460 lung = tested on: NCI-H460 lung
NCI/ADR-RES ovarian = tested on: NCI/ADR-RES ovarian
OVCAR-8 ovarian = tested on: OVCAR-8 ovarian
SF-268 CNS = tested on: SF-268 CNS
SF-295 CNS = tested on: SF-295 CNS
SF-539 CNS = tested on: SF-539 CNS
SK-OV-3 ovarian = tested on: SK-OV-3 ovarian
SN12C renal = tested on: SN12C renal
SNB-19 CNS = tested on: SNB-19 CNS
SNB-75 CNS = tested on: SNB-75 CNS
T-47D breast = tested on: T-47D breast
TK-10 renal = tested on: TK-10 renal
UACC-62 melanoma = tested on: UACC-62 melanoma
UO-31 renal = tested on: UO-31 renal
HOP-92 NSCLC = tested on: HOP-92 NSCLC
HS 578T breast = tested on: HS 578T breast
M14 melanoma = tested on: M14 melanoma

CC1(C)[C@@H]2CC[C@@]1(C)[C@@H]1O[C@@H](O[C@@H](CN)c3cc(Cl)c(OCc4ccccc4)c(OCc4ccccc4)c3)C[C@H]21
TGI (A498 renal): 0.344 µM | TGI (ACHN renal): 0.306 µM | TGI (CAKI-1 renal): 0.301 µM | TGI (CCRF-CEM leukemia): 0.364 µM | TGI (DU-145 prostate): 0.332 µM | TGI (EKVX NSCLC): 0.301 µM | TGI (HL-60(TB) leukemia): 0.373 µM | TGI (HT29 colon): 0.284 µM | TGI (K-562 leukemia): 0.478 µM | TGI (KM12 colon): 0.305 µM | TGI (MALME-3M melanoma): 0.342 µM | TGI (MCF7 breast): 0.262 µM | TGI (MDA-MB-231 breast): 0.288 µM | TGI (MDA-MB-435): 0.297 µM | TGI (MDA-N): 0.284 µM | TGI (MOLT-4 leukemia): 0.341 µM | TGI (NCI-H522 lung): 0.357 µM | TGI (OVCAR-3 ovarian): 0.306 µM | TGI (OVCAR-4 ovarian): 0.298 µM | TGI (OVCAR-5 ovarian): 0.302 µM | TGI (PC-3 prostate): 0.292 µM | TGI (RPMI-8226 leukemia): 0.225 µM | TGI (RXF 393 renal): 0.288 µM | TGI (SK-MEL-2 melanoma): 0.311 µM | TGI (SK-MEL-28 melanoma): 0.384 µM | TGI (SK-MEL-5 melanoma): 0.324 µM | TGI (SR leukemia): 0.222 µM | TGI (SW-620 colon): 0.43 µM | TGI (U251 CNS): 0.293 µM | TGI (UACC-257 melanoma): 0.322 µM

CS(=O)(=O)OCCn1c(=O)n(CCOS(C)(=O)=O)c(=O)n(CCOS(C)(=O)=O)c1=O
TGI (786-0 renal): > 100 µM | TGI (A498 renal): > 100 µM | TGI (A549 NSCLC): > 100 µM | TGI (ACHN renal): > 100 µM | TGI (BT-549 breast): > 100 µM | TGI (CAKI-1 renal): > 100 µM | TGI (CCRF-CEM leukemia): > 100 µM | TGI (COLO 205 colon): > 100 µM | TGI (DU-145 prostate): > 100 µM | TGI (EKVX NSCLC): > 100 µM | TGI (HCC-2998 colon): > 100 µM | TGI (HCT-116 colon): > 100 µM | TGI (HCT-15 colon): > 100 µM | TGI (HL-60(TB) leukemia): > 100 µM | TGI (HOP-62 NSCLC): > 100 µM | TGI (HT29 colon): > 100 µM | TGI (IGROV1 ovarian): > 100 µM | TGI (K-562 leukemia): > 100 µM | TGI (KM12 colon): > 100 µM | TGI (LOX IMVI melanoma): > 100 µM | TGI (MALME-3M melanoma): > 100 µM | TGI (MCF7 breast): > 100 µM | TGI (MDA-MB-231 breast): > 100 µM | TGI (MDA-MB-435): > 100 µM | TGI (MDA-N): > 100 µM | TGI (MOLT-4 leukemia): > 100 µM | TGI (NCI-H226 lung): > 100 µM | TGI (NCI-H23 lung): > 100 µM | TGI (NCI-H460 lung): > 100 µM | TGI (NCI/ADR-RES ovarian): > 100 µM | TGI (OVCAR-3 ovarian): > 100 µM | TGI (OVCAR-4 ovarian): > 100 µM | TGI (OVCAR-5 ovarian): > 100 µM | TGI (OVCAR-8 ovarian): > 100 µM | TGI (RPMI-8226 leukemia): > 100 µM | TGI (RXF 393 renal): > 100 µM | TGI (SF-268 CNS): > 100 µM | TGI (SF-295 CNS): > 100 µM | TGI (SF-539 CNS): > 100 µM | TGI (SK-MEL-28 melanoma): > 100 µM | TGI (SK-MEL-5 melanoma): > 100 µM | TGI (SK-OV-3 ovarian): > 100 µM | TGI (SN12C renal): > 100 µM | TGI (SNB-19 CNS): > 100 µM | TGI (SNB-75 CNS): > 100 µM | TGI (SR leukemia): > 100 µM | TGI (SW-620 colon): > 100 µM | TGI (T-47D breast): > 100 µM | TGI (TK-10 renal): > 100 µM | TGI (U251 CNS): > 100 µM | TGI (UACC-257 melanoma): > 100 µM | TGI (UACC-62 melanoma): > 100 µM | TGI (UO-31 renal): > 100 µM

COC(=O)c1c2c(cc3c1CC1(C3)Cc3cc4c(c(C(=O)OC)c3C1)CCCC4)CCCC2
TGI (786-0 renal): > 100 µM | TGI (A498 renal): > 100 µM | TGI (A549 NSCLC): > 100 µM | TGI (ACHN renal): > 100 µM | TGI (CCRF-CEM leukemia): 96 µM | TGI (COLO 205 colon): > 100 µM | TGI (EKVX NSCLC): > 100 µM | TGI (HCC-2998 colon): > 100 µM | TGI (HCT-116 colon): > 100 µM | TGI (HCT-15 colon): > 100 µM | TGI (HL-60(TB) leukemia): 74.5 µM | TGI (HOP-62 NSCLC): > 100 µM | TGI (HOP-92 NSCLC): > 100 µM | TGI (HS 578T breast): > 100 µM | TGI (HT29 colon): > 100 µM | TGI (IGROV1 ovarian): > 100 µM | TGI (K-562 leukemia): > 100 µM | TGI (KM12 colon): > 100 µM | TGI (LOX IMVI melanoma): > 100 µM | TGI (M14 melanoma): > 100 µM | TGI (MALME-3M melanoma): > 100 µM | TGI (MCF7 breast): > 100 µM | TGI (MDA-MB-231 breast): > 100 µM | TGI (MDA-MB-435): > 100 µM | TGI (MDA-N): > 100 µM | TGI (MOLT-4 leukemia): > 100 µM | TGI (NCI-H226 lung): > 100 µM | TGI (NCI-H23 lung): > 100 µM | TGI (NCI-H522 lung): > 100 µM | TGI (NCI/ADR-RES ovarian): > 100 µM | TGI (OVCAR-3 ovarian): > 100 µM | TGI (OVCAR-4 ovarian): > 100 µM | TGI (OVCAR-5 ovarian): > 100 µM | TGI (OVCAR-8 ovarian): > 100 µM | TGI (PC-3 prostate): 39.5 µM | TGI (RPMI-8226 leukemia): > 100 µM | TGI (RXF 393 renal): > 100 µM | TGI (SF-295 CNS): > 100 µM | TGI (SF-539 CNS): > 100 µM | TGI (SK-MEL-2 melanoma): 5.18 µM | TGI (SK-MEL-5 melanoma): > 100 µM | TGI (SK-OV-3 ovarian): > 100 µM | TGI (SN12C renal): > 100 µM | TGI (T-47D breast): > 100 µM | TGI (TK-10 renal): > 100 µM | TGI (U251 CNS): > 100 µM | TGI (UACC-257 melanoma): > 100 µM | TGI (UACC-62 melanoma): > 100 µM | TGI (UO-31 renal): 1.23 µM

CC(C)(C)NC(=O)/C(=C\Sc1ccccc1)c1ccc2c(c1)OCO2
TGI (786-0 renal): > 100 µM | TGI (A498 renal): 59 µM | TGI (A549 NSCLC): > 100 µM | TGI (ACHN renal): > 100 µM | TGI (BT-549 breast): > 100 µM | TGI (CAKI-1 renal): > 100 µM | TGI (CCRF-CEM leukemia): > 100 µM | TGI (COLO 205 colon): 53.4 µM | TGI (DU-145 prostate): > 100 µM | TGI (EKVX NSCLC): > 100 µM | TGI (HCC-2998 colon): > 100 µM | TGI (HCT-116 colon): 65.8 µM | TGI (HCT-15 colon): > 100 µM | TGI (HL-60(TB) leukemia): 41.9 µM | TGI (HOP-62 NSCLC): > 100 µM | TGI (HOP-92 NSCLC): 55.1 µM | TGI (HT29 colon): 35.9 µM | TGI (IGROV1 ovarian): > 100 µM | TGI (K-562 leukemia): > 100 µM | TGI (KM12 colon): > 100 µM | TGI (LOX IMVI melanoma): 48.9 µM | TGI (M14 melanoma): 54.8 µM | TGI (MCF7 breast): 60.6 µM | TGI (MDA-MB-231 breast): 52.8 µM | TGI (MDA-MB-435): 47.7 µM | TGI (MDA-N): 59.8 µM | TGI (MOLT-4 leukemia): > 100 µM | TGI (NCI-H23 lung): > 100 µM | TGI (NCI-H522 lung): 43.3 µM | TGI (NCI/ADR-RES ovarian): 97.5 µM | TGI (OVCAR-3 ovarian): > 100 µM | TGI (OVCAR-4 ovarian): > 100 µM | TGI (OVCAR-5 ovarian): > 100 µM | TGI (OVCAR-8 ovarian): > 100 µM | TGI (PC-3 prostate): 73.7 µM | TGI (RPMI-8226 leukemia): 94.4 µM | TGI (SF-268 CNS): 52.3 µM | TGI (SF-295 CNS): > 100 µM | TGI (SF-539 CNS): > 100 µM | TGI (SK-MEL-2 melanoma): 34.6 µM | TGI (SK-MEL-28 melanoma): > 100 µM | TGI (SK-MEL-5 melanoma): 32.8 µM | TGI (SK-OV-3 ovarian): > 100 µM | TGI (SN12C renal): 84.2 µM | TGI (SNB-19 CNS): > 100 µM | TGI (SR leukemia): 83.8 µM | TGI (SW-620 colon): > 100 µM | TGI (T-47D breast): > 100 µM | TGI (TK-10 renal): > 100 µM | TGI (U251 CNS): 98.6 µM | TGI (UACC-257 melanoma): 74.5 µM | TGI (UACC-62 melanoma): 57.9 µM | TGI (UO-31 renal): > 100 µM
